Tested on: A549 cells
Assay: MTT cell viability, A549
Format: cell-based, human
Settings: 48 h, Fig. 7A; for effect of ATP on viability in HN-ID media: HN-immunodepleted media, versus no ATP; for effect on cell viability: control media, three experiments in triplicate
Method: Human NSCLC cell lines, A549 (ATCC CCL‐185) and H1299 (ATCC CRL‐5803), were purchased from the American Type Culture Collection (ATCC, Manassas, VA, USA). Cells were seeded as we reported earlier in 5 mL HyClone Dulbecco's modified Eagle's medium/nutrient mixture F‐12 (DMEM/F12) (GE Healthcare Life Sciences, Pittsburgh, PA, USA), supplemented with 10% Fetalgro bovine growth serum (FBS; RMBIO, Missoula, MT, USA), 50 U·mL^−1 penicillin, and […] streptomycin (Invitrogen, Life Technologies, Carlsbad, CA, USA) in 25‐cm^2 tissue culture flasks, and allowed to grow overnight in an incubator at 37 °C, 95% humidity, and 5% CO2. The cells were counted after trypan blue staining, with a hemocytometer.
The 3‐(4,5‐dimethylthiazol‐2‐yl)‐2,5‐diphenyl‐tetrazolium bromide (MTT) reduction assay (Sigma‐Aldrich), used to measure cell viability, was carried out as we reported earlier. Cells were seeded in 96‐well plates as indicated in 200 μL 10% FBS‐supplemented media per well and maintained overnight at 95% humidity and 5% CO2. After an overnight incubation, the media were replaced with 200 μL serum‐free media, and the cells were further incubated, without or with different treatments, for 24, 48, or 72 h. The final concentration of DMSO in each well never exceeded 0.1%. The cells were then incubated for 4 h with MTT (0.5 mg·mL^−1) in the dark. The media were carefully removed, and DMSO (100 μL) was added to dissolve the formazan crystals. The absorbance was measured at 570 nm in a plate reader. Untreated cells or wells containing only DMSO and media were used as a positive and negative control, respectively. Statistical analysis was conducted using […] PRISM version 8.4.3 for Windows. Significant values were considered at P < 0.05 and more significant values at P < 0.01, compared with the control.
Conditioned media were immunodepleted (ID) according to the methods previously described and our recently published report. Briefly, specific antibodies were bound to ELISA wells overnight (1 : 1000 dilution). The wells were then blocked and washed, then 300 μL of the conditioned medium (0.5 μg·μL^−1) treated as indicated, 72 h postserum starvation, was incubated with the antibodies bound to ELISA wells for 24 h. The ID media were then carefully removed and analyzed for the presence of the target protein or peptide by ELISA. The same amount of protein (3 µL of 600 µg·mL^−1 total protein) of each sample was analyzed in the experiments. Significant depletion (95–100%) was observed upon using each of the antibodies employed in this study.
Since addition of ATP appears to increase binding of HN to Aβ, and conversely, decreases the interaction of Aβ with AChE (Figs 3, 4, 5, 6), we tested the effect of added ATP on A549 and H1299 cell viability (Fig. 7). Exogenously added ATP at either 100 µM or 1 mM had no effect on viability of either A549 (Fig. 7A) or H1299 cells (Fig. 7B). […] To determine the effect of ID of AChE or HN in the absence or presence of added ATP on cell viability, ID media were prepared by first seeding 0.2 × 10^5 cells per well in 96‐well plates in 10% FBS‐supplemented media. The next day, the cells were incubated in serum‐free medium for 72 h, then ID of AChE or HN as described in Materials and methods. For cell viability assays, cells were seeded in 96‐well plates at 0.2 × 10^5 cells per well in 200 µL 10% FBS‐supplemented media followed by incubation in serum‐free medium for 12 h, then treated with the ID media for 48 h. […]

Nc1ncnc2c1ncn2[C@@H]1O[C@H](COP(=O)(O)OP(=O)(O)OP(=O)(O)O)[C@@H](O)[C@H]1O [ATP, Adenosine triphosphate]
effect of ATP on viability in AChE-depleted media (AChE-immunodepleted media): did not affect cell viability | effect of ATP on viability in HN-ID media (ATP 100 µM): No change in cell viability | effect on cell viability (ATP 100 µM): no effect | effect of ATP on viability in HN-ID media (ATP 1 mM): No change in cell viability | effect on cell viability (ATP 1 mM): no effect

Source: paper PMC7714071, “Interaction of amyloid beta with humanin and acetylcholinesterase is modulated by ATP” (FEBS Open Bio, 2020)
